“And” between values parts separate entries of the source, which are not always exact repeats. Identical values can stand only once.
Columns and labels:
[1] = biological target: Glycogen synthase kinase-3 alpha (Homo sapiens, UniProt P49840); experiment: TR-FRET Assay
Summary of the method: (§1)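 Signal is measured as TR-FRET between a terbium anti-phospho-Ser641 antibody and streptavidin-d2, added after an EDTA quench. Compounds are preincubated 30 min in assay buffer.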

[2] = biological target: Glycogen synthase kinase-3 beta (Homo sapiens, UniProt P49841); experiment: TR-FRET Assay
Summary of the method: as §1

Sequence of Glycogen synthase kinase-3 alpha (P49840 whole entry): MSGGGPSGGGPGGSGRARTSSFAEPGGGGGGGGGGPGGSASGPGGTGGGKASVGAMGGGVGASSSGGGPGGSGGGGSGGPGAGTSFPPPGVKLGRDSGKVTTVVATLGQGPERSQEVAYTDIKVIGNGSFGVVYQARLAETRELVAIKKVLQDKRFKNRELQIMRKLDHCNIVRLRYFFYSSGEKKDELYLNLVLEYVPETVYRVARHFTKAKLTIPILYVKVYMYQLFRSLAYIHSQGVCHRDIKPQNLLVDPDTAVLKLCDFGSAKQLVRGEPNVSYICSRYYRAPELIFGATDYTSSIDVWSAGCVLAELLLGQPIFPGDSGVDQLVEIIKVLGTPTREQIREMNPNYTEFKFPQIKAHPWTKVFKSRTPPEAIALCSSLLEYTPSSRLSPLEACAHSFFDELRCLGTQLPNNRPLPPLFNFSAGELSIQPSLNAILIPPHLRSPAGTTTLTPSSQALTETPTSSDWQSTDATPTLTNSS
Sequence of Glycogen synthase kinase-3 beta (P49841 whole entry): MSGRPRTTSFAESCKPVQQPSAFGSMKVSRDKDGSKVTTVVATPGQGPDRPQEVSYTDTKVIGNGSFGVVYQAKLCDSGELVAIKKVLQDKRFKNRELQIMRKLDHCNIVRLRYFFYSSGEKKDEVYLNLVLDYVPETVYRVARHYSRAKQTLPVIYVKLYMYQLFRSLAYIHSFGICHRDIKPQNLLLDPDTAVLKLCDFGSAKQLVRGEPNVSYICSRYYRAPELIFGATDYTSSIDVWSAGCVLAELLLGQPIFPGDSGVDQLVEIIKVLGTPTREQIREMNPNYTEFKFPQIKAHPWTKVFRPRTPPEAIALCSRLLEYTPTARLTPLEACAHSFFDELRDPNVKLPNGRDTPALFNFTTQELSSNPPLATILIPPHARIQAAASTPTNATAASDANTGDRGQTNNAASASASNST

Compound | IC50 [1] | IC50 [2]
Cc1c(S(=O)(=O)N2CCC3(CC2)C2=C(N=NC2)NC2=C3C(=O)CC(C)(C)C2)cnn1C [US20250313563, Compound 947460] | < 100 nM | < 100 nM
CC1(C)CC(=O)C2=C(C1)NC1=C(CN=N1)C21CCN(S(=O)(=O)c2cc(F)ccn2)CC1 [US20250313563, Compound 947262] | 100 to 1000 nM | 100 to 1000 nM
CC[C@@]1(c2cccc(-c3c(C)cncc3C)c2)C2=CN=NC2NC2=C1C(=O)CC(C)(C)C2 (some centres undefined) [US20250313563, Compound 947659] | < 100 nM | 100 to 1000 nM
Cn1cc(S(=O)(=O)N2CCC3(CC2)C2=C(N=NC2)NC2=C3C(=O)CC(C)(C)C2)nn1 [US20250313563, Compound 947898] | < 100 nM | 100 to 1000 nM
CC[C@@]1(c2cccc(-c3ccnc(OC)c3)c2)C2=C(CC(C)(C)CC2=O)NC2N=NC(C)=C21 (some centres undefined) [US20250313563, Compound 913016] | 100 to 1000 nM | 1000 to 5000 nM
CC[C@]1(c2cccc(-c3cnn4c3CCCC4)c2)C2=CN=NC2NC2=C1C(=O)CC(C)(C)C2 (some centres undefined) [US20250313563, Compound 945543] | 100 to 1000 nM | 1000 to 5000 nM
CC[C@@]1(c2cccc(-c3ccnnc3)c2)C2=CN=NC2NC2=C1C(=O)CC(C)(C)C2 (some centres undefined) [US20250313563, Compound 929454] | < 100 nM and 100 to 1000 nM | < 100 nM and 1000 to 5000 nM
CC[C@]1(c2cccc(C(F)(F)F)c2)C2=CN=NC2NC2=C1C(=O)N(c1cccnc1)CC2 (some centres undefined) [US20250313563, Compound 947432] | < 100 nM and 100 to 1000 nM | 100 to 1000 nM and > 5000 nM
CC[C@]1(c2cccc(-c3ccncc3)c2)C2=CN=NC2NC2=C1C(=O)C[C@@H](C)C2 (some centres undefined) [US20250313563, Compound 874317] | < 100 nM | < 100 nM
Cc1ccc(S(=O)(=O)N2CCC3(CC2)C2=C(N=NC2)NC2=C3C(=O)CC(C)(C)C2)s1 [US20250313563, Compound 945672] | < 100 nM and 100 to 1000 nM | < 100 nM and 100 to 1000 nM
CC[C@@]1(c2cccc(-c3ccnc(C)c3)c2)C2=C(N=NC2)NC2=C1C(=O)C(C)(C)C2 [US20250313563, Compound 950283] | 1000 to 5000 nM | > 5000 nM
CC[C@@]1(c2cccc(-c3cn(C)nc3C)c2)C2=C(CC(C)(C)NC2=O)NC2N=NC(C(F)F)=C21 (some centres undefined) [US20250313563, Compound 950497] | < 100 nM | < 100 nM and 100 to 1000 nM
COC[C@H]1C[C@@]2(C1)C1=C(N=NC1)NC1=C2C(=O)CC(C)(C)C1 [US20250313563, Compound 912173] | 100 to 1000 nM | 100 to 1000 nM
CC[C@@]1(c2cccc(-c3ccn(C)n3)c2)C2=C(CC(C)(C)CC2=O)NC2N=NC(C)=C21 (some centres undefined) [US20250313563, Compound 913030] | < 100 nM and 100 to 1000 nM | < 100 nM and 100 to 1000 nM
CCC1(c2cccc(-c3cc(C)ncc3OC)c2)C2=CN=NC2NC2=C1C(=O)CC(C)(C)C2 (centres undefined) [US20250313563, Compound 945468] | < 100 nM | 100 to 1000 nM
CC[C@]1(c2cccc(C(F)(F)F)c2)C2=CN=NC2NC2=C1C(=O)NC[C@H]2C (some centres undefined) [US20250313563, Compound 945383] | < 100 nM | 100 to 1000 nM
CCC1(c2cccc(S(=O)(=O)CC3CC3)c2)C2=CN=NC2NC2=C1C(=O)NC(C)(C)C2 (centres undefined) [US20250313563, Compound 948177] | < 100 nM | 100 to 1000 nM
C[C@H]1CCC[C@]12C1=CN=NC1NC1=C2C(=O)CC(C)(C)C1 (some centres undefined) [US20250313563, Compound 874320] | 1000 to 5000 nM | 1000 to 5000 nM
CC[C@@]1(c2cccc(-c3ccnn3C)c2)C2=CN=NC2NC2=C1C(=O)CC(C)(C)[C@H]2F (some centres undefined) [US20250313563, Compound 957508] | > 5000 nM | > 5000 nM
CCC1(c2cccc(N(C)c3cccc(F)n3)c2)C2=CN=NC2NC2=C1C(=O)CC(C)(C)C2 (centres undefined) [US20250313563, Compound 918274] | < 100 nM | 100 to 1000 nM
CC[C@@]1(c2cccc(C(F)(F)F)c2)C2=CN=NC2NC2=C1C(=O)N(c1cnn(C)c1)CC2 (some centres undefined) [US20250313563, Compound 949271] | 100 to 1000 nM | > 5000 nM
CC(C)(C)CC1=C2C(N=N1)NC1=C(C(=O)CC(C)(C)C1)[C@@]21CCc2c(F)cccc21 (some centres undefined) [US20250313563, Compound 791257] | < 100 nM | < 100 nM
Cc1cccc(S(=O)(=O)N2CC[C@@]3(C2)C2=C(N=NC2)NC2=C3C(=O)CC(C)(C)C2)c1 [US20250313563, Compound 951863] | 100 to 1000 nM | 100 to 1000 nM
CCC1(c2cccc(-c3ccnc(C)c3)c2)C2=C(CC(C)(C)NC2=O)NC2N=NC(C(F)F)=C21 (centres undefined) [US20250313563, Compound 949169] | < 100 nM and 100 to 1000 nM | < 100 nM and 1000 to 5000 nM
CCC1(c2cccc(-c3cc(C)ncc3F)c2)C2=C(CC(C)(C)NC2=O)NC2N=NC(C(F)(F)F)=C21 (centres undefined) [US20250313563, Compound 948762] | < 100 nM | < 100 nM
CC[C@@]1(c2cccc(C(F)(F)F)c2)C2=CN=NC2NC2=C1C(=O)N(c1ccn(C)n1)CC2 (some centres undefined) [US20250313563, Compound 949836] | 1000 to 5000 nM | > 5000 nM

Compound | IC50 [1] | IC50 [2]
CC[C@@]1(c2cccc(C(F)(F)F)c2)C2=CN=NC2NC2=C1C(=O)N(c1cnc(OC)nc1)CC2 (some centres undefined) [US20250313563, Compound 949127] | 1000 to 5000 nM | > 5000 nM
CC[C@]1(c2cccc(C(F)(F)F)c2)C2=CN=NC2NC2=C1C(=O)N(c1ccccn1)CC2 (some centres undefined) [US20250313563, Compound 949310] | 100 to 1000 nM | 100 to 1000 nM
CC[C@@]1(c2cccc(-c3c(C)cnc4c(C)cccc34)c2)C2=CN=NC2NC2=C1C(=O)NC(C)(C)C2 (some centres undefined) [US20250313563, Compound 952760] | > 5000 nM | > 5000 nM
CCC1(c2cccc(-c3cnn(C)n3)c2)C2=CN=NC2NC2=C1C(=O)CC(C)(C)C2 (centres undefined) [US20250313563, Compound 947492] | < 100 nM | 1000 to 5000 nM
CCC1(c2cccc(-c3ccncc3C)c2)C2=C(CC(C)(C)CC2=O)NC2N=NC(C)=C21 (centres undefined) [US20250313563, Compound 883991] | < 100 nM | < 100 nM
COc1ccc(S(=O)(=O)N2CCC3(CC2)C2=C(N=NC2)NC2=C3C(=O)CC(C)(C)C2)cc1 [US20250313563, Compound 917143] | < 100 nM | < 100 nM
CCC1(c2ccn(C)n2)C2=C(N=NC2)NC2=C1C(=O)CC(C)(C)C2 (centres undefined) [US20250313563, Compound 790619] | 1000 to 5000 nM | > 5000 nM
CCC1(c2cccc(N(C)c3nccc(OC)n3)c2)C2=CN=NC2NC2=C1C(=O)CC(C)(C)C2 (centres undefined) [US20250313563, Compound 929387] | < 100 nM | < 100 nM
CC[C@]1(c2cccc(Cc3ncccn3)c2)C2=CN=NC2NC2=C1C(=O)CC(C)(C)C2 (some centres undefined) [US20250313563, Compound 947498] | < 100 nM | < 100 nM
CCC1(c2cccc(Oc3ncccn3)c2)C2=C(CC(C)(C)NC2=O)NC2N=NC(Cl)=C21 (centres undefined) [US20250313563, Compound 950318] | < 100 nM | < 100 nM
CN1CCC2(C1)C1=C(N=NC1)NC1=C2C(=O)CC(C)(C)C1 (centres undefined) [US20250313563, Compound 841867] | > 5000 nM | > 5000 nM
CC1(C)CC(=O)C2=C(C1)NC1=C(CN=N1)[C@]2(C)c1cc(C(F)(F)F)ccc1F [US20250313563, Compound 816798] | < 100 nM | 100 to 1000 nM
CCC1(c2cccc(N(C)c3ncccn3)c2)C2=C(CC(C)(C)NC2=O)NC2N=NC(C(F)F)=C21 (centres undefined) [US20250313563, Compound 950484] | < 100 nM | < 100 nM
CC[C@@]1(c2cccc(S(=O)(=O)CCOC)c2)C2=CN=NC2NC2=C1C(=O)CC(C)(C)C2 (some centres undefined) [US20250313563, Compound 943546] | 1000 to 5000 nM | > 5000 nM
CC[C@]1(c2cccc(-c3ccnc4c3CCC4)c2)C2=C(CC(C)(C)NC2=O)NC2N=NC(C(F)(F)F)=C21 (some centres undefined) [US20250313563, Compound 948769] | 100 to 1000 nM | 100 to 1000 nM
CC[C@@]1(c2cccc(-c3cnn(C)c3)c2)C2=CN=NC2NC2=C1C(=O)C[C@H](C)C2 (some centres undefined) [US20250313563, Compound 823724] | 100 to 1000 nM | 1000 to 5000 nM
CC[C@@]1(c2cccc(C(F)(F)F)c2)C2=CN=NC2NC2=C1C(=O)NC1(CCC1)C2 (some centres undefined) [US20250313563, Compound 914344] | 100 to 1000 nM | > 5000 nM
CC1(C)CC(=O)C2=C(C1)NC1=C(CN=N1)C21Cc2ccccc2C1 [US20250313563, Compound 897752] | < 100 nM | 100 to 1000 nM
CC[C@]1(c2cccc(-c3c(C)nn(C)c3C)c2)C2=C(CC(C)(C)NC2=O)NC2N=NC(C)=C21 (some centres undefined) [US20250313563, Compound 947573] | 100 to 1000 nM | 1000 to 5000 nM
Cc1cc(C)cc(C(=O)N2CC3(C2)C[C@@]2(CO3)C3=C(N=NC3)NC3=C2C(=O)CC(C)(C)C3)c1 [US20250313563, Compound 948223] | < 100 nM and 100 to 1000 nM | < 100 nM and 100 to 1000 nM
CC1(C)CC(=O)C2=C(C1)NC1N=NC(C(F)(F)F)=C1C21CCc2c(F)cccc21 (centres undefined) [US20250313563, Compound 801356] | < 100 nM | < 100 nM
CC1(C)CC(=O)C2=C(C1)NC1=C(CN=N1)C21COC2(CN(C(=O)C(F)(F)F)C2)C1 (centres undefined) [US20250313563, Compound 947280] | < 100 nM | < 100 nM
Cn1ccc(S(=O)(=O)N2CCC[C@@]3(CC2)C2=CN=NC2NC2=C3C(=O)CC(C)(C)C2)n1 (some centres undefined) [US20250313563, Compound 932660] | < 100 nM | 100 to 1000 nM
CN1C[C@@]2(C3=C(CC(C)(C)CC3=O)NC3N=NC(C4CC(F)(F)C4)=C32)c2ccccc21 (some centres undefined) [US20250313563, Compound 119048] | 1000 to 5000 nM | 100 to 1000 nM
CC[C@]1(c2cccc(C(F)(F)F)c2)C2=C(N=NC2)NC2=C1C(=O)N(Cc1ccccc1)[C@@H]2C [US20250313563, Compound 930330] | < 100 nM | 100 to 1000 nM
CC[C@@]1(c2cccc(CN(C)c3ccnc(C)c3)c2)C2=CN=NC2NC2=C1C(=O)CC(C)(C)C2 (some centres undefined) [US20250313563, Compound 932665] | > 5000 nM | > 5000 nM

Reference: BindingDB's records for patent US20250313563 (The Broad Institute, 2025)
